Measurements reported in patent US20100222421A1, “Usage of Baicalein in the Preparation of a Pharmaceutical Composition for the Treatment of Traumatic Brain Injury” (National Defense Medical Center, priority 2009, published 2010).

Columns and labels:
[1] = system: rats with controlled cortical impact (CCI) injury; test: Beam walk test after CCI injury; assay type: in vivo, rat
Experimental: A previously described CCI injury procedure was utilized (Chen et al., 2003). Male Sprague-Dawley rats, which have body weight of 250-300 g, were anaesthetized with sodium pentobarbital (i.p.; 50 mgkg^−1; Rhone Merieux, Harlow, UK) and placed in a stereotaxic frame. A 5-mm craniotomy was performed over the left parietal cortex, centered on the coronal suture and 3 mm lateral to the sagittal suture. Considerable care was taken to avoid injury to the underlying dura. Injury was made using a pneumatic piston with a rounded metal tip (2.5 mm diameter) that was angled 22.5° C. to the vertical so that the tip was perpendicular with the brain surface at the centre of the craniotomy. A velocity of 4 ms^−1 and a deformation depth 2 mm below the dura were used. The bone flap was immediately replaced and sealed, and the scalp was closed with sutures. Body temperature was monitored throughout the surgery by a rectal probe; temperature was maintained at 37.0±0.5° C. using a heated pad. Rats were placed in a heated cage to maintain body temperature, while recovering from anaesthesia. Baicalein (30 mg kg^−1) dissolved in 10% dimethyl sulphoxide (0.25-0.3 mL) or a corresponding volume of vehicle (10% dimethyl sulphoxide) was administered i.p. immediately following injury or daily for 4 days (immediately, 25, 49 and 73 h) after injury. Behaviour testing using the rotarod, tactile adhesive removal, mNSS and beam walk tests was performed at 28 hours as well as 4, 7, 14, 21 and 28 days post-injury. At 14 and 28 days, the animals were killed, perfused intravascularly and their brains were processed with cresyl violet staining to assess contusion volume (n=8 for each group). […] Behaviour testing was performed before CCI and at […] by an observer who was unaware of the experimental treatments. The battery of tests consisted of the rotarod motor test, tactile adhesive-removal somatosensory test, mNSS and beam walk test. Animals were pretrained for 3 days for the rotarod, tactile adhesiveremoval somatosensory and beam walk tests (see below). The beam walk test was utilized to evaluate fine motor coordination and function (Feeney et al., 1982). Rats escaped from a bright light and loud white noise by walking along a narrowed wooden beam (2.5×122.0 cm) to enter a darkened goal box at the opposite end of the beam. The latency for the rat to reach the goal box (not to exceed 60 s) and hindlimb performance as he traversed the beam (based on a 1-7 rating scale) were recorded. A score of 7 was given when animals traversed the beam with two or less foot slips. A score of 6 was given when animals traversed the beam with less than 50% foot slips. A score of 5 was given for more than 50% but less than 100% foot slips. A score of 4 was given for 100% foot slips. A score of 3 was given for traversal with the affected limb extended and not reaching the surface of the beam. A score of 2 was given when the animal was able to balance on the beam but not traverse it. A score of 1 was given when the animal could not balance on the beam. Three trials were recorded 1 hour before CCI (baseline), and each day after CCI. Mean values of latency and score for each day were computed.

[2] = system: rats with controlled cortical impact (CCI) injury; test: Cortical contusion volume, cresyl violet staining; assay type: in vivo, rat
Experimental: A previously described CCI injury procedure was utilized (Chen et al., 2003). Male Sprague-Dawley rats, which have body weight of 250-300 g, were anaesthetized with sodium pentobarbital (i.p.; 50 mgkg^−1; Rhone Merieux, Harlow, UK) and placed in a stereotaxic frame. A 5-mm craniotomy was performed over the left parietal cortex, centered on the coronal suture and 3 mm lateral to the sagittal suture. Considerable care was taken to avoid injury to the underlying dura. Injury was made using a pneumatic piston with a rounded metal tip (2.5 mm diameter) that was angled 22.5° C. to the vertical so that the tip was perpendicular with the brain surface at the centre of the craniotomy. A velocity of 4 ms^−1 and a deformation depth 2 mm below the dura were used. The bone flap was immediately replaced and sealed, and the scalp was closed with sutures. Body temperature was monitored throughout the surgery by a rectal probe; temperature was maintained at 37.0±0.5° C. using a heated pad. Rats were placed in a heated cage to maintain body temperature, while recovering from anaesthesia. Baicalein (30 mg kg^−1) dissolved in 10% dimethyl sulphoxide (0.25-0.3 mL) or a corresponding volume of vehicle (10% dimethyl sulphoxide) was administered i.p. immediately following injury or daily for 4 days (immediately, 25, 49 and 73 h) after injury. Behaviour testing using the rotarod, tactile adhesive removal, mNSS and beam walk tests was performed at 28 hours as well as 4, 7, 14, 21 and 28 days post-injury. At 14 and 28 days, the animals were killed, perfused intravascularly and their brains were processed with cresyl violet staining to assess contusion volume (n=8 for each group). […] Following with terminal anaesthesia, rats were killed by transcardial perfusion first with phosphate-buffered saline (PBS) and then with 4% paraformaldehyde and their tissues were processed on day 1 (for FJB staining and cytokine immunohistochemistry), day 14 (for cresyl violet histology) and day 28 (for cresyl violet histology), post-injury. All solutions were maintained at pH 7.4 and 4° C. Brains were removed and post-fixed in 4% paraformaldehyde overnight and transferred to PBS containing 30% sucrose and 0.1% sodium azide, manufactured by Sigma Chemical Co. located at St Louis, Mo., USA, for cryoprotection. Coronal sections were cut in a cryostat at […] from the level of the olfactory bulbs to the visual cortex. Every 50th slice was used for cresyl violet histology, FJB staining or immunohistochemistry. The distance between similarly stained sections within each group was thus […], with approximately 20 sections per group. […] To measure contusion volumes, cresyl violet-stained sections were digitized and analyzed using a ×1.5 objective and computer image analysis system (Scion Image, Beta Release 4.0.2; Scion Corp., Frederick, Md., USA). […] Contusion area was calculated from all images of cresyl violet-stained sections that contained contused brain; volume measurement was computed by summation of areas multiplied by interslice distance (500 μm).

O=c1cc(-c2ccccc2)oc2cc(O)c(O)c(O)c12 [baicalein]
differences in hindlimb motor scores between single-dose and multiple-dose groups ([1]; 30 mg kg^-1 i.p., any testing day, P>0.05): not significant | beam walk latencies, multiple-dose versus single-dose group ([1]; 30 mg kg^-1 i.p., days 1 and 4, P<0.05): significantly shorter | beam walk latencies versus vehicle group ([1]; multiple-dose 30 mg kg^-1 i.p. daily for 4 days, days 1, 4, 7, 21 and 28, P<0.05): significantly shorter | decrease in hindlimb motor scores (beam walk) versus vehicle group ([1]; multiple-dose 30 mg kg^-1 i.p. daily for 4 days, days 1, 4, 14, 21 and 28, P<0.05): significantly different | decrease in hindlimb motor scores (beam walk) versus vehicle group ([1]; single-dose 30 mg kg^-1 i.p., days 4, 7, 14 and 21, P<0.05): significantly different | beam walk latencies versus vehicle group ([1]; single-dose 30 mg kg^-1 i.p., days 4 and 21, P<0.05): significantly shorter | contusion volume, single-dose versus multiple-dose groups ([2]; 30 mg kg^-1 i.p., days 14 and 28, P>0.05): no significant difference | reduction of contusion volume versus vehicle ([2]; multiple doses 30 mg kg^-1 i.p. daily for 4 days, 14 days post-injury): 42% | reduction of contusion volume versus vehicle ([2]; multiple doses 30 mg kg^-1 i.p. daily for 4 days, 28 days post-injury): 42% | reduction of contusion volume versus vehicle ([2]; single dose 30 mg kg^-1 i.p., 14 days post-injury): 32% | reduction of contusion volume versus vehicle ([2]; single dose 30 mg kg^-1 i.p., 28 days post-injury): 34%
